# In US8916702B2 (priority 2012, dated 2014):
# System: HCV pseudoparticles (genotype 1a HCV E1 and E2 envelope, H77C isolate)
# Experiment: microbe, parasite or virus in culture
# Assay type: cell-based
# Conditions: Hepatitis C virus, Huh-7, 48 h, HCV pseudoparticles (genotype 1a, H77C) in Huh7 cells; average of duplicate; luciferase 2 days after infection
row,Compound,EC50 [nM]
1,COC(=O)[C@H](CNC(=O)C(=O)Nc1ccc(-n2cnnn2)cc1)NC(=O)c1ccc(Nc2nc(NC3(c4ccc(Cl)cc4)CC3)nc(OCC(F)(F)F)n2)cc1 [Compound 3191],0.82
2,O=C(NCC(O)CNC(=O)c1ccc(Nc2nc(NC3(c4ccc(Cl)cc4)CC3)nc(OCC(F)(F)F)n2)cc1)C(=O)Nc1ccccc1 (stereo not shown) [Compound 3460],0.016
3,Cc1ccc(NC(=O)C(=O)N(CCO)CCCNC(=O)c2ccc(Nc3nc(NC4(c5ccc(Cl)cc5)CC4)nc(OCC(F)(F)F)n3)cc2)cc1O [Compound 3506],0.51
4,COC(=O)[C@H](CCNC(=O)C(=O)Nc1ccc(Oc2ccccc2)cc1)NC(=O)c1ccc(Nc2nc(NC3(c4ccc(Cl)cc4)CC3)nc(OCC(F)(F)F)n2)cc1 [Compound 3113],7.77

# Same assay, conditions: Hepatitis C virus, Huh-7, 48 h, read-out: Activity (EC50 class), HCV pseudoparticle infection of Huh7 cells, luciferase 2 days after infection; EC50 expressed as class A/B
row,Compound,EC50 [nM]
1,COC(=O)[C@H](CCNC(=O)C(=O)NNc1ccccc1)NC(=O)c1ccc(Nc2nc(NC3(c4ccc(Cl)cc4)CC3)nc(OCC(F)(F)F)n2)cc1 [Compound 1220],0.01 to 10
2,O=C(NCC[C@H](NC(=O)c1ccc(Nc2nc(NC3(c4ccc(Cl)cc4)CC3)nc(OCC(F)(F)F)n2)cc1)C(=O)O)C(=O)NCC1CCCc2ccccc21 (stereo partly shown) [Compound 1343],0.01 to 10
3,CC(C)(CNC(=O)C(=O)Nc1cccc(-c2nn[nH]n2)c1)CNC(=O)c1ccc(Nc2nc(NC3(c4ccc(Cl)cc4)CC3)nc(OCC(F)(F)F)n2)cc1 [Compound 1489],0.01 to 10
4,CC(C)(C)C1CCC(NC(=O)C(=O)NCC[C@H](NC(=O)c2ccc(Nc3nc(NC4(c5ccc(Cl)cc5)CC4)nc(OCC(F)(F)F)n3)cc2)C(=O)O)CC1 (stereo partly shown) [Compound 1128],0.01 to 10
5,O=C(NCCc1ccccc1)C(=O)NC[C@H](NC(=O)c1ccc(Nc2nc(NC3(c4ccc(Cl)cc4)CC3)nc(OCC(F)(F)F)n2)cc1)C(=O)O [Compound 1396],0.01 to 10
6,COC(=O)[C@H](CCNC(=O)C(=O)Nc1ccc(OC)cc1)NC(=O)c1ccc(Nc2nc(NC3(c4ccc(Cl)cc4)CC3)nc(OCC(F)(F)F)n2)cc1 [Compound 1232],0.01 to 10
7,O=C(NCCc1cccc(F)c1)C(=O)NC[C@H](NC(=O)c1ccc(Nc2nc(NC3(c4ccc(Cl)cc4)CC3)nc(OCC(F)(F)F)n2)cc1)C(=O)O [Compound 1401],0.01 to 10
8,O=C(NC[C@H](NC(=O)c1ccc(Nc2nc(NC3(c4ccc(Cl)cc4)CC3)nc(OCC(F)(F)F)n2)cc1)C(=O)O)C(=O)N[C@@H]1C[C@H]1c1ccccc1 [Compound 1406],0.01 to 10

# Same assay, conditions: Hepatitis C virus, Huh-7, 48 h, read-out: Activity (EC50 class), HCV pseudoparticles, Huh7 cells, luciferase 2 days after infection; average of duplicates
row,Compound,EC50 [nM]
1,COC(=O)[C@H](CNC(=O)C(=O)Nc1ccc(Cl)nc1)NC(=O)c1ccc(Nc2nc(NC3(c4ccc(Cl)cc4)CC3)nc(OCC(F)(F)F)n2)cc1 [Compound 3683],0.01 to 10
2,Cn1cnnc1-c1cccc(NC(=O)C(=O)NC[C@H](NC(=O)c2ccc(Nc3nc(NC4(c5ccc(Cl)cc5)CC4)nc(OCC(F)(F)F)n3)cc2)C(=O)O)c1 [Compound 3774],0.01 to 10
3,O=C(NC[C@H](NC(=O)c1ccc(Nc2nc(NC3(c4ccc(Cl)cc4)CC3)nc(OCC(F)(F)F)n2)cc1)C(=O)O)C(=O)Nc1cccc(Oc2ccccc2)c1 [Compound 3750],0.01 to 10
4,CC(C)(CNC(=O)C(=O)Nc1nc2cc(F)ccc2s1)CNC(=O)c1ccc(Nc2nc(NC3(c4ccc(Cl)cc4)CC3)nc(OCC(F)(F)F)n2)cc1 [Compound 3810],0.01 to 10
5,O=C(NC[C@H](NC(=O)c1ccc(Nc2nc(NC3(c4ccc(Cl)cc4)CC3)nc(OCC(F)(F)F)n2)cc1)C(=O)Cl)C(=O)Nc1cccc(Oc2cccnc2)c1 [Compound 3792],0.01 to 10
6,Cc1nccc(-c2cccc(NC(=O)C(=O)NCC[C@H](NC(=O)c3ccc(Nc4nc(NC5(c6ccc(Cl)cc6)CC5)nc(OCC(F)(F)F)n4)cc3)C(=O)O)c2)n1 [Compound 3625],0.01 to 10
7,COC(=O)[C@H](CCNC(=O)C(=O)Nc1cccc(-c2nnnn2C)c1)NC(=O)c1ccc(Nc2nc(NC3(c4ccc(Cl)cc4)CC3)nc(OCC(F)(F)F)n2)cc1 [Compound 3607],0.01 to 10
8,COC(=O)[C@H](CNC(=O)C(=O)Nc1cccc(S(=O)(=O)C(F)(F)F)c1)NC(=O)c1ccc(Nc2nc(NC3(c4ccc(Cl)cc4)CC3)nc(OCC(F)(F)F)n2)cc1 [Compound 3710],0.01 to 10
9,COC(=O)[C@H](CNC(=O)C(=O)Nc1cccc(S(=O)(=O)N2CCCCC2)c1)NC(=O)c1ccc(Nc2nc(NC3(c4ccc(Cl)cc4)CC3)nc(OCC(F)(F)F)n2)cc1 [Compound 3717],0.01 to 10

# Same assay, conditions: Hepatitis C virus, Huh-7, read-out: Activity (EC50 class), HCV pseudoparticles (genotype 1a, H77C) in Huh7 cells; EC50 expressed as class A/B
row,Compound,EC50 [nM]
1,CC(C)CNC(=O)C(=O)NCC(O)CNC(=O)c1ccc(Nc2nc(NC3(c4ccc(Cl)cc4)CC3)nc(OCC(F)(F)F)n2)cc1 (stereo not shown) [Compound 3467],0.01 to 10
2,CC(C)(CNC(=O)C(=O)Nc1ccncc1)CNC(=O)c1ccc(Nc2nc(NC3(c4ccc(Cl)cc4)CC3)nc(OCC(F)(F)F)n2)cc1 [Compound 3241],0.01 to 10
3,COC(=O)[C@H](CNC(=O)C(=O)Nc1ccc(-n2cnnn2)cc1)NC(=O)c1ccc(Nc2nc(NC3(c4ccc(Cl)cc4)CC3)nc(OCC(F)(F)F)n2)cc1 [Compound 3191],0.01 to 10
4,O=C(NCC(O)CNC(=O)c1ccc(Nc2nc(NC3(c4ccc(Cl)cc4)CC3)nc(OCC(F)(F)F)n2)cc1)C(=O)Nc1ccccc1 (stereo not shown) [Compound 3460],0.01 to 10
5,COC(=O)[C@H](CNC(=O)C(=O)Nc1ccc(OC(F)(F)F)cc1)NC(=O)c1ccc(Nc2nc(NC3(c4ccc(Cl)cc4)CC3)nc(OCC(F)(F)F)n2)cc1 [Compound 3214],0.01 to 10
6,Cc1ccc(NC(=O)C(=O)N(CCO)CCCNC(=O)c2ccc(Nc3nc(NC4(c5ccc(Cl)cc5)CC4)nc(OCC(F)(F)F)n3)cc2)cc1O [Compound 3506],0.01 to 10
7,Cc1ccccc1-c1ccc(NC(=O)C(=O)NC[C@H](NC(=O)c2ccc(Nc3nc(NC4(c5ccc(Cl)cc5)CC4)nc(OCC(F)(F)F)n3)cc2)C(=O)O)cc1 [Compound 3272],0.01 to 10
8,CC(C)(CNC(=O)C(=O)Nc1ccc(C(F)(F)F)cc1C#N)CNC(=O)c1ccc(Nc2nc(NC3(c4ccc(Cl)cc4)CC3)nc(OCC(F)(F)F)n2)cc1 [Compound 3435],0.01 to 10
9,CC(C)(CNC(=O)C(N)=O)CNC(=O)c1ccc(Nc2nc(NC3(c4ccccc4Cl)CC3)nc(OCC(F)(F)F)n2)cc1 [Compound 3265],10 to 1000
10,CC(C)(CNC(=O)C(=O)Nc1ccc(F)c(Cl)c1)CNC(=O)c1ccc(Nc2nc(NC3(c4ccc(Cl)cc4)CC3)nc(OCC(F)(F)F)n2)cc1 [Compound 3059],0.01 to 10
11,COC(=O)[C@H](CNC(=O)C(=O)Nc1ccc(-c2ccccc2C)cc1)NC(=O)c1ccc(Nc2nc(NC3(c4ccc(Cl)cc4)CC3)nc(OCC(F)(F)F)n2)cc1 [Compound 3187],0.01 to 10
12,CCOc1ccc(NC(=O)C(=O)NCC[C@H](NC(=O)c2ccc(Nc3nc(NC4(c5ccc(Cl)cc5)CC4)nc(OCC(F)(F)F)n3)cc2)C(=O)OC)cc1 [Compound 3327],0.01 to 10
13,COC(=O)[C@H](CCNC(=O)C(=O)Nc1ccc(Oc2ccccc2)cc1)NC(=O)c1ccc(Nc2nc(NC3(c4ccc(Cl)cc4)CC3)nc(OCC(F)(F)F)n2)cc1 [Compound 3113],0.01 to 10
14,O=C(NC/C(=N/C(=O)c1ccc(Nc2nc(NC3(c4ccc(Cl)cc4)CC3)nc(OCC(F)(F)F)n2)cc1)C(=O)O)C(=O)Nc1ccc(N2CCN(Cc3ccccc3)CC2)cc1 [Compound 3169],0.01 to 10
15,CN(CCCN(C)C(=O)c1ccc(Nc2nc(NC3(c4ccc(Cl)cc4)CC3)nc(OCC(F)(F)F)n2)cc1)C(=O)C(N)=O [Compound 3411],0.01 to 10
16,COC(=O)[C@H](CNC(=O)C(=O)Nc1ccc(S(=O)(=O)N2CCCC2)cc1)NC(=O)c1ccc(Nc2nc(NC3(c4ccc(Cl)cc4)CC3)nc(OCC(F)(F)F)n2)cc1 [Compound 3106],0.01 to 10
17,COC(=O)[C@H](CNC(=O)C(=O)Nc1ccc(Cl)cc1)NC(=O)c1ccc(Nc2nc(NC3(c4ccc(Cl)cc4)CC3)nc(OCC(F)(F)F)n2)cc1 [Compound 3081],0.01 to 10
18,O=C(NCC[C@@H](NC(=O)c1ccc(Nc2nc(NC3(c4ccc(Cl)cc4)CC3)nc(OCC(F)(F)F)n2)cc1)C(=O)O)C(=O)Nc1cc(F)c(F)c(F)c1F [Compound 3051],0.01 to 10
19,Cc1cc(C)n(-c2ccccc2NC(=O)C(=O)NCC(C)(C)CNC(=O)c2ccc(Nc3nc(NC4(c5ccc(Cl)cc5)CC4)nc(OCC(F)(F)F)n3)cc2)n1 [Compound 3177],0.01 to 10
